Read-outs that look alike come from different tables or passages of the source.
Columns and labels:
[1] = test system: serum proteins; conditions: mice; cited from earlier work
[2] = test system: serum proteins; conditions: humans; cited from earlier work
[3] = test system: serum proteins; conditions: rats; cited from earlier work
[4] = target: T1, BSA Site I / Site II (Bos taurus, UniProt P02769); test: Site marker studies with phenylbutazone (Site I) and ibuprofen (Site II); format: binding, bovine
T1 construct: purchased Sigma-Aldrich (St. Louis, MO, USA)
T1 sequence (P02769 25-607): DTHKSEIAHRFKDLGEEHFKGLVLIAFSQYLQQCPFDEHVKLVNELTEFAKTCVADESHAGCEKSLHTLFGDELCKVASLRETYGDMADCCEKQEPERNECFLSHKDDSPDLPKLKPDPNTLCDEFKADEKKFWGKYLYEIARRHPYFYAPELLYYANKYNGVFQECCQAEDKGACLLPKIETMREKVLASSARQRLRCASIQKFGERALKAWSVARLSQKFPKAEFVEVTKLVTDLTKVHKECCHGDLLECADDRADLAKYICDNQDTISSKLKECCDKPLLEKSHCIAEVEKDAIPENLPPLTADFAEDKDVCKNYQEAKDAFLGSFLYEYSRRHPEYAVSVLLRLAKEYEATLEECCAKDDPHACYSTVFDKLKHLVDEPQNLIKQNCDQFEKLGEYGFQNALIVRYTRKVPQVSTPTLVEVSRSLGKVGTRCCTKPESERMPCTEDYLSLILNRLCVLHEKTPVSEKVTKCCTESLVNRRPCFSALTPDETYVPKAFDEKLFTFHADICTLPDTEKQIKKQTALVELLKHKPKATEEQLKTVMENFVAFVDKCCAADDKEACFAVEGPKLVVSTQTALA

[5] = target: bovine serum albumin (BSA) (Bos taurus, UniProt P02769); test: Fluorescence quenching of BSA by ligand (binary and ternary systems; Stern Volmer, double log and van't Hoff analysis); format: binding
bovine serum albumin (BSA), sequence (P02769 25-607): as above
From the text: The spectrofluorometer FP-8200 (JASCO, Hachioji, Tokyo, Japan) was used to measure the fluorescence spectra. […] The inner filter effects were corrected for the reabsorption of emitted light using the equation [35]: Fcor=Fobs×e^(Aex+Aem)/2
Fcor and Fobs are the corrected and observed fluorescence in the above equation, respectively, and Aex and Aem are excitation and emission wavelengths absorbance values, respectively.
The fluorescence spectra for the protein BSA for the binary and the ternary system were recorded at 280 nm (excitation wavelength) and an emission wavelength of 300–500 nm (Figure 1a–c). […] (1) kq=Ksv/τ0 where F0 is BSA’s fluorescence intensity, and F is BSA’s fluorescence intensity in the presence of quencher. Stern Volmer constant is given as Ksv, and (Q) is quencher concentration. The kq biomolecular quenching constant and τ0 the lifetime of the fluorophore in the absence of quencher and is valued at 10^−8 s for biopolymers.
The binding constants and binding stoichiometry are were determined using a double logarithmic regression plot derived from the equation: log(F0−F)/F=log Kb+n log[Q] .

[6] = target: T1, BSA Site I / Site II; design: method as in PMID 28513070, PMID 34946608; conditions: cited from earlier work

Question: What does the source list for `C#Cc1cccc(Nc2ncnc3cc(OCCOC)c(OCCOC)cc23)c1` [ERL, Erlotinib]?
Answer: binding to serum proteins [1]: 95%; binding to serum proteins [2]: 92%; binding to serum proteins [3]: 92%; influence of phenylbutazone on quenching behavior and binding constant of BSA-ERL ([4]; Site I marker phenylbutazone): strongly influenced; binding constants of BSA-ERL in the presence and absence of ibuprofen ([4]; Site II marker ibuprofen): similar; binding site on BSA ([4]; site markers phenylbutazone and ibuprofen): Site I

Question: What does the source list for `O=c1c(O)c(-c2ccc(O)c(O)c2)oc2cc(O)cc(O)c12` [QUR, Quercetin]?
Answer: bimolecular quenching constant kq ([5]; binary system, 298 K, kq = Ksv/τ0, τ0 10^−8 s): 46.07 × 10^12 M^−1S^−1; Stern Volmer constant Ksv ± SD ([5]; binary system, BSA 1.5 μM, 298 K): 460,702 ± 1875 M^−1; further reduction of fluorescence intensity of the BSA-ERL system by presence of QUR ([5]; difference ternary vs binary system): 26%; binding site on BSA [6]: Site I
